# Measurements as given in ChEMBL document CHEMBL4033691, “Discovery and structure-guided fragment-linking of 4-(2,3-dichlorobenzoyl)-1-methyl-pyrrole-2-carboxamide as a pyruvate kinase M2 activator” (Bioorg Med Chem, 2017).
# The source made the active and inactive calls. The calls are words filed in the database; no cut-off is given here.
# Assays:
# Pyruvate kinase PKM [1] = biological target: T1, Pyruvate kinase PKM (Homo sapiens, UniProt P14618); experiment: Activation of full length recombinant human N-terminal His6-tagged PKM2 expressed in Escherichia coli BL21(DE3) using PEP as substrate preincubated for 5 mins followed by substrate addition measured after 90 mins in presence of ADP by Kinase-Glo luminescence assay
# Pyruvate kinase PKM [2] = biological target: T1, Pyruvate kinase PKM; experiment: Activation of full length recombinant human N-terminal His6-tagged PKM2 expressed in Escherichia coli BL21(DE3) at 10 ug/ml using PEP as substrate preincubated for 5 mins followed by substrate addition measured after 90 mins in presence of ADP by Kinase-Glo luminescence assay relative to control
# Target sequence in this assay (P14618 2-531 limits assumed): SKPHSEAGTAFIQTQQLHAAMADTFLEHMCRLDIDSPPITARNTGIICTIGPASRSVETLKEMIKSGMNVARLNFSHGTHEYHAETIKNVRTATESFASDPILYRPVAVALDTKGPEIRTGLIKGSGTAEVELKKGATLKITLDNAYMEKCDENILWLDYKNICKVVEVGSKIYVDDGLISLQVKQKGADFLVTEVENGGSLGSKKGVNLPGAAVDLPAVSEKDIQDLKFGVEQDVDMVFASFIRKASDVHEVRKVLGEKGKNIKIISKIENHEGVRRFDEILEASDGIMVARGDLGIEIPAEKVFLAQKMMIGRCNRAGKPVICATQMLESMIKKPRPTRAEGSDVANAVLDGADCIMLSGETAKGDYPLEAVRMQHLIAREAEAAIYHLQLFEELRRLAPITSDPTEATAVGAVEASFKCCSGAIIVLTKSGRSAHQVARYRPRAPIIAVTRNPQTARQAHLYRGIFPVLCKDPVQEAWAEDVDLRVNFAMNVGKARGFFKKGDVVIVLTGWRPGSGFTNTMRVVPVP
# Pyruvate kinase PKM [3] = biological target: T1, Pyruvate kinase PKM; experiment: Activation of PKM2 in human A549 cells using PEP as substrate preincubated for 1 hr followed by substrate addition measured after 1 hr in presence of ADP by Kinase-Glo luminescence assay; type: cell-based
# Target sequence in this assay (P14618 whole entry): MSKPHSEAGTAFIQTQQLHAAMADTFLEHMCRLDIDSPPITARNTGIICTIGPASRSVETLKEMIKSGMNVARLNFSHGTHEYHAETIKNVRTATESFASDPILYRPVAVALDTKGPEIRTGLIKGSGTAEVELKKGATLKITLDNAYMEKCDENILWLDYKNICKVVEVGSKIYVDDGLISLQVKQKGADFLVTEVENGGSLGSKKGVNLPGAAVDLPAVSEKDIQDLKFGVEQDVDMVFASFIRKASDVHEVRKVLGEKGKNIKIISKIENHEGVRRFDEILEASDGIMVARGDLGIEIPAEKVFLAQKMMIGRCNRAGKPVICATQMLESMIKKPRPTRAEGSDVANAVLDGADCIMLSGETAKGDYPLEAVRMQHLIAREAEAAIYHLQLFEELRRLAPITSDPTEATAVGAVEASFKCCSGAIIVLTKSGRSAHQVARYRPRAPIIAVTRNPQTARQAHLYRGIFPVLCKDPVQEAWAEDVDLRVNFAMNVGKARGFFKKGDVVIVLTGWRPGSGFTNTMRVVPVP
# [4] = Stability of the compound; type: physicochemical
# A549 = experiment: Growth inhibition of human A549 cells after 72 hrs in presence of serine by CellTiter-Glo luminescent assay; type: functional, cell-based
# Pyruvate kinase PKM [5] = biological target: T1, Pyruvate kinase PKM; experiment: Activation of PKM2 in human A549 cells using PEP as substrate preincubated for 1 hr followed by substrate addition measured after 1 hr in presence of ADP by Kinase-Glo luminescence assay relative to control; type: cell-based
# Target sequence in this assay (P14618 2-531 limits assumed): as the sequence (P14618 2-531 limits assumed) above
AC200 (Pyruvate kinase PKM [1]) [µM],Emax (Pyruvate kinase PKM [2]) [%],AC50 (Pyruvate kinase PKM [3]) [nM],AC50 (Pyruvate kinase PKM [1]) [nM],Stability [4],Activity (Pyruvate kinase PKM [5]) [%],SMILES,growth inhibition (GI) (A549)
26,198,> 100000,–,–,–,Cn1cc(C(=O)c2cccc(Cl)c2Cl)cc1C(N)=O,–
–,181,–,150,–,–,O=S(=O)(c1ccc2c(c1)OCCO2)N1CCN(S(=O)(=O)c2c(F)cccc2F)CC1,–
–,194,–,–,Unstable,–,Cn1cc(C(=O)c2cccc(Cl)c2Cl)cc1C(=O)NCNC(=O)c1cc(C(=O)c2cccc(Cl)c2Cl)cn1C,–
–,184,188,–,–,598,Cn1cc(C(=O)c2cccc(Cl)c2Cl)cc1C(=O)NCCNC(=O)c1cc(C(=O)c2cccc(Cl)c2Cl)cn1C,inactive
